According to patent US8361780B2, “Biological system and assay for identifying modulators of tubulin ligases” (University of Georgia Research Foundation, Inc., priority 2005, dated 2013):

Key:
zebrafish embryos [1] = test: Tubulin monoglycylation in cilia of zebrafish embryos (TAP952 immunofluorescence); assay type: in vivo; conditions: 72 hpf; TTLL3-ATG MO 1 ng, TTLL3-SP MO 3 ng
Description: (§1) MO Knockdowns in Zebrafish Embryos. TTLL3-ATG MO (5′ […] 3′; SEQ ID NO:129) and TTLL3-SP MO (5′ […] 3; SEQ ID NO:130) were obtained from Open Biosystems (Huntsville, AL). TTLL3-ATG targets the translation initiation site of ttll3 mRNA. TTLL3-SP is predicted to prevent splicing of exon 11 and cause a frame shift in exon 12. This would eliminate the coding sequence downstream of exon 10, which includes a conserved catalytic domain-encoding region. To evaluate the effect of TTLL3-SP on ttll3 mRNA, total RNA was isolated with TRIzol reagent (Invitrogen, Inc., Carlsbad, Calif.) from embryos at 7 hpf: 50 uninjected control embryos, 40 embryos injected with 3 ng TTLL3-SP MO, or 30 embryos injected with 5 ng TTLL3-SP MO. Total RNA ([…]) was used as a template for cDNA synthesis with random hexamers and oligo-dT primers and the iScript TM cDNA synthesis kit (Bio-Rad Laboratories, Hercules, Calif.). cDNA ([…]) was amplified with the following primers spanning exon 11: TTLL3-splice F, 5′-[…]-3′ (exon 10; SEQ ID NO:131); TTLL3-splice R, 5′-[…]-3′ (exon 12; SEQ ID NO:132). As expected, primers flanking exon 11 produced a shorter product in RT-PCR from embryos injected with TTLL3-SP than in controls (FIG. 50D). […] As a negative control, we injected 25 base MOs with a random base mixture at each position (Gene Tools, Inc., Philomath, Oreg.).
(§2) Microscopy of Zebrafish. For whole-mount, in situ hybridization, embryos were fixed as previously described (Hagos and Dougan, 2007), stored in 100% methanol at −20° C., and stained with spaw, lefty1, lefty2, and cmlc2 probes (Yelon, 2001). Embryos were photographed under differential interference contrast with a Zeiss Axioplan 2 microscope with Slidebook (Intelligent Imaging Innovations, Denver, Colo.). For immunofluorescence, the embryos were manually dechorionated and fixed with 0.5% Triton X-100 and 4% paraformaldehyde in PBT (0.1% Tween-20 in PBS) at 4° C. overnight. After washing with PBT, embryos were dehydrated in methanol/PBT series and incubated overnight in 100% methanol at −20° C. After rehydration, embryos were blocked for 1-2 hr in 2% BSA, 0.5% normal goat serum,l%DMSO, 0.5% Triton X-100 in PBS, and incubated overnight at 4° C. with one of the following antibodies: 6-11 B-1 (1:1000); TAP952 (1:2000); AXO49 (1:2000); and GT335 (1:1000); polyE (1:500). After washing 3×10 min with 0.5% Triton X-100 in PBS, embryos were incubated overnight at 4° C. in anti-mouse-IgG-FITC or anti-rabbit-IgG-Cy3 (1:500; Zymed), washed (3×10 min), mounted in 100 mg/ml of DABCO (Sigma-Aldrich) in PBS, and examined on a Leica TCS SP confocal microscope.

zebrafish embryos [2] = test: Heart position in zebrafish embryos, in situ hybridization; assay type: in vivo
Description: as §1, §2

zebrafish embryos [3] = test: Expression pattern of southpaw in zebrafish embryos (in situ hybridization); assay type: in vivo
Description: as §1, §2

ttll3 mRNA = test: RT-PCR assay for TTLL3 mRNA in injected zebrafish embryos; assay type: in vivo; conditions: embryos at 7 hpf, 3 or 5 ng
Description: as §1

zebrafish embryos [4] = test: Heart position in zebrafish embryos, scoring live embryos; assay type: in vivo
Description: as §1

zebrafish embryos [5] = test: Morphology of zebrafish morphant embryos; conditions: in vivo
Description: as §1

zebrafish embryos [6] = test: Expression pattern of lefty2 in zebrafish embryos (in situ hybridization); assay type: in vivo
Description: as §1, §2

TTLL3-SP-MO: antisense morpholino 5′ GATGTACAGAGCTGAGATTGAAAAG 3; blocks splicing at the intron 10/exon 11 junction of ttll3 mRNA (all phosphorodiamidate morpholino (PMO))
levels of tubulin monoglycylation/glycylation in cilia (zebrafish embryos [1]): reduced | heart position left, number of embryos (zebrafish embryos [2]): 23 | heart position left, percent of embryos (zebrafish embryos [2]): 57.5% | heart position middle, number of embryos (zebrafish embryos [2]): 6 | heart position middle, percent of embryos (zebrafish embryos [2]): 15% | heart position right, number of embryos (zebrafish embryos [2]): 11 | heart position right, percent of embryos (zebrafish embryos [2]): (27.5%) | southpaw expression: Bilatera or midline, number of embryos (zebrafish embryos [3]): 22 | southpaw expression: Bilatera or midline, percent of embryos (zebrafish embryos [3]): (53.7%) | southpaw expression: No specific signal, number of embryos (zebrafish embryos [3]): 6 | southpaw expression: No specific signal, percent of embryos (zebrafish embryos [3]): (14.6%) | southpaw expression: left, number of embryos (zebrafish embryos [3]): 12 | southpaw expression: left, percent of embryos (zebrafish embryos [3]): (29.3%) | southpaw expression: right, number of embryos (zebrafish embryos [3]): 1 | southpaw expression: right, percent of embryos (zebrafish embryos [3]): (2.4%) | levels of endogenous TTLL3 mRNA (ttll3 mRNA): dramatic reduction | heart position left, number of embryos (zebrafish embryos [4]): 21 | heart position left, percent of embryos (zebrafish embryos [4]): 64% | heart position middle, number of embryos (zebrafish embryos [4]): 8 | heart position middle, percent of embryos (zebrafish embryos [4]): 24% | heart position right, number of embryos (zebrafish embryos [4]): 4 | heart position right, percent of embryos (zebrafish embryos [4]): (12%) | hydrocephalic morphants (zebrafish embryos [5]): 81% | morphant embryos with curly tail (zebrafish embryos [5]): 64.3% | lefty2 expression: Bilatera or midline, number of embryos (zebrafish embryos [6]): 2 | lefty2 expression: Bilatera or midline, percent of embryos (zebrafish embryos [6]): (4.8%) | lefty2 expression: No specific signal, number of embryos (zebrafish embryos [6]): 16 | lefty2 expression: No specific signal, percent of embryos (zebrafish embryos [6]): (38.1%) | lefty2 expression: left, number of embryos (zebrafish embryos [6]): 21 | lefty2 expression: left, percent of embryos (zebrafish embryos [6]): (50%) | lefty2 expression: right, number of embryos (zebrafish embryos [6]): 3 | lefty2 expression: right, percent of embryos (zebrafish embryos [6]): (7.1%)
